pIC50: −log10 of the molar value.
Legend:
HeLa = test: In vitro soft agar colony forming growth assay; type: cell-based; settings: Homo sapiens, 168 h
Protocol: (§1) The Soft Agar Assay for Colony Formation is considered the most stringent assay for detecting malignant transformation of cells. In this assay the cells are cultured in medium with low percentage of agar.
(§2) An exemplary procedure for the assay follows.

MDAMB231 [1] = test: In vitro soft agar colony forming growth assay; type: cell-based; settings: Homo sapiens, MDA-MB-231, 168 h
Protocol: as §1, §2

L929 = test: In vitro soft agar colony forming growth assay; type: cell-based; settings: Mus musculus, L929, 168 h
Protocol: as §1, §2

[2] = system: MCF10A (normal breast cell line); test: In vitro colorimetric cell death assay (MTT); type: cell-based; settings: 48 hours
Protocol: (§3) It's an in vitro colorimetric assay for assessing cell viability where the cells are grown in Two-dimensional surface.
(§4) An exemplary procedure for the assay follows. Cancer cells and normal cells were plated in a 96 well plate as per predetermined plating efficiency. The plate was incubated for 24 hours in a 5% CO2 atmosphere at 37 degrees Celsius, a range of concentrations of the compounds I-1, I-2 and I-3 as well as cisplatin (known chemotherapeutic agents) were added to the separate wells, the plate was incubated further for 48 hours in a 5% CO2 atmosphere, the plate was centrifuged twice at 3000 rpm for 3 minutes, the supernatant fluid was discarded, 100 uL of 0.5 mg/mL MTT solution was added and the plate was incubated for 4 hours in a 5% CO2 atmosphere at 37 degrees Celsius. The plate was then centrifuged twice at 3000 rpm for 3 minutes, supernatant, was aspirated very carefully, 200 uL DMSO was added to each well to solubilize MTT crystals and mixed well by shaking the plate, the plate was incubated for 10 minutes in a 5% CO2 atmosphere at 37 degrees Celsius, the plate placed on the shaker of an ELISA plate reader and the absorbance at 570 nm was measured, then the percentage of viable cells remaining was calculated by first subtracting the background absorbance then comparing to the absorbance of a non-drug-treated cell sample, and the results were plotted on a graph to determine the IC50 for the compounds and cisplatin.

L 929 = test: In vitro colorimetric cell death assay (MTT); type: cell-based; settings: Mus musculus, L929, 48 h
Protocol: as §3, §4

DU145 [3] = test: In vitro colorimetric cell death assay (MTT); type: cell-based; settings: Homo sapiens
Protocol: as §3, §4

[4] = In vivo maximum tolerated dose assay for compound I-1; design: species or system nude mice
Protocol: In vivo maximum tolerated dose (MTD) toxicity assay was carried out to evaluate the highest dose of a pharmaceutical treatment that will produce the desired effect without unacceptable toxicity. The purpose of administering MTD is to determine whether long-term exposure to a compound might lead to unacceptable adverse health effects in a subject, when the level of exposure is not sufficient to cause premature mortality due to short-term toxic effects.
An exemplary procedure for the in vivo maximum tolerated dose toxicity assay follows. A statistically appropriate number of male and female nude mice were injected with a single dose of either 30 mg/kg, 10 mg/kg, 5 mg/kg, and 2.5 mg/kg of a compound I-1 interperitoneally (i.p.) on day zero. The number of mice surviving from each dose group after the first through fourth days was recorded, and the Maximum Tolerated Dose (“MTD”; e.g. the dose at which 100% of the animals survived after 4 days) was determined.

cancer cell lines = test: In vitro colorimetric cell death assay (MTT), overall statement; type: cell-based
Protocol: as §3, §4

T47D [5] = test: In vitro soft agar colony forming growth assay; type: cell-based; settings: Homo sapiens, 168 h, one week
Protocol: as §1, §2

PC3 [6] = test: In vitro soft agar colony forming growth assay; type: cell-based; settings: Homo sapiens, PC-3, 168 h, one week
Protocol: as §1, §2

DU145 [7] = test: In vitro soft agar colony forming growth assay; type: cell-based; settings: Homo sapiens, DU-145, 168 h, one week
Protocol: as §1, §2

T47D [8] = test: In vitro colorimetric cell death assay (MTT); type: cell-based; settings: Homo sapiens, 48 hours
Protocol: as §3, §4

MDAMB231 [9] = test: In vitro colorimetric cell death assay (MTT); type: cell-based; settings: Homo sapiens, MDA-MB-231, 48 hours
Protocol: as §3, §4

PC3 [10] = test: In vitro colorimetric cell death assay (MTT); type: cell-based; settings: Homo sapiens, PC-3, 48 hours
Protocol: as §3, §4

LNCaP = test: In vitro colorimetric cell death assay (MTT); type: cell-based; settings: Homo sapiens, 48 hours
Protocol: as §3, §4

[11] = system: breast cancer cells MCF-7; test: In vitro 3D primary sphere forming stem cell assay; type: cell-based
Protocol: (§5) This assay measures the ability of cancer stem cells to form spheres in a serum free media where the spheres are in a suspended form. Through this assay we evaluated the potency of the compounds of the invention to kill cancer stem cells in comparison with the known chemotherapeutic agent Cisplatin.
(§6) An exemplary procedure for the assay follows. Cells were grown in three dimensions on a plastic substrate, harvested in suspension in serum-free media, then the cells in the sample were trypsinized and a single cell suspension was formed by passing through a cell strainer. The cells were diluted according to the predetermined plating efficiency for the cell line being studied by suspending the cells in stem cell culture medium. 100 uL of this suspension was added into each well of a 96 well suspension plate, and the plate was incubated at 37 degrees Celsius in 5% CO2 atmosphere for 24 hours, then 2 uL of appropriate concentrations of the compounds of the invention and cisplatin were added into each respective well along with 100 uL of stem cell culture medium, and the plates were incubated at 37 degrees Celsius under 5% CO2 atmosphere for 72 hours. 2.5 uL of the compounds of the invention and cisplatin were added to each respective well along with 50 uL of stem cell culture medium and then the plates were incubated at 37 degrees Celsius under 5% CO2 atmosphere for 72 hours. 3 uL of appropriate concentrations of the compounds of the invention and cisplatin were added to each respective well along with 50 uL of stem cell culture medium and then the plates were incubated at 37 degrees Celsius under 5% CO2 atmosphere for 72 hours, then the spheres formed were observed under a microscope then counted and scored by size.
(§7) Results of the in vitro 3D sphere forming stem cell assay are set forth in a tabular manner. The number in each box is the total number of spheres formed in the presence of either cisplatin or compound I-2 or compound I-3 at each drug concentration. GC refers to a growth control performed in the absence of drug or solvent (DMSO). GCD refers to a growth control performed in the absence of drug, but in the presence of DMSO.

[12] = system: breast cancer cells MDA MB 231; test: In vitro 3D primary sphere forming stem cell assay; type: cell-based
Protocol: as §5, §6, §7

COc1cc2c(OC3OCC(OC)C(OC)C3OC(C)=O)c3c(c(-c4ccc5c(c4)OCO5)c2cc1OC)C(=O)OC3 (stereo not drawn) [I-1]
pIC50 (HeLa): 5.29 | pIC50 (MDAMB231 [1]): 5.23 | pIC50 (L929): 5.44 | IC50 [2]: No activity | pIC50 (L 929): 5.91 | pIC50 (DU145 [3]; DU-145, 48 h): 4.43 | Number of mice surviving after injection ([4]; 2.5 mg/kg single dose i.p., day 0): 6/6 | Number of mice surviving after injection ([4]; 2.5 mg/kg single dose i.p., day 1): 6/6 | Number of mice surviving after injection ([4]; 2.5 mg/kg single dose i.p., day 2): 6/6 | Number of mice surviving after injection ([4]; 2.5 mg/kg single dose i.p., day 3): 6/6 | Number of mice surviving after injection ([4]; 2.5 mg/kg single dose i.p., day 4): 6/6 | Number of mice surviving after injection ([4]; 5 mg/kg single dose i.p., day 0): 6/6 | Number of mice surviving after injection ([4]; 5 mg/kg single dose i.p., day 1): 6/6 | Number of mice surviving after injection ([4]; 5 mg/kg single dose i.p., day 2): 6/6 | Number of mice surviving after injection ([4]; 5 mg/kg single dose i.p., day 3): 6/6 | Number of mice surviving after injection ([4]; 5 mg/kg single dose i.p., day 4): 6/6 | Number of mice surviving after injection ([4]; 10 mg/kg single dose i.p., day 0): 6/6 | Number of mice surviving after injection ([4]; 10 mg/kg single dose i.p., day 1): 4/6 | Number of mice surviving after injection ([4]; 10 mg/kg single dose i.p., day 2): 4/6 | Number of mice surviving after injection ([4]; 10 mg/kg single dose i.p., day 3): 4/6 | Number of mice surviving after injection ([4]; 10 mg/kg single dose i.p., day 4): 4/6 | Number of mice surviving after injection ([4]; 30 mg/kg single dose i.p., day 0): 4/6 | Number of mice surviving after injection ([4]; 30 mg/kg single dose i.p., day 1): 4/6 | Number of mice surviving after injection ([4]; 30 mg/kg single dose i.p., day 2): 0/6 | Number of mice surviving after injection ([4]; 30 mg/kg single dose i.p., day 3): 0/6 | Number of mice surviving after injection ([4]; 30 mg/kg single dose i.p., day 4): 0/6 | MTD ([4]; single dose i.p., nude mice): 5-10 mg/kg body weight | dose that resulted in 100% survival of mice after 4 days ([4]; single dose i.p., nude mice): about 5 mg/kg | anticancer activity in cancer cell lines as compared to cisplatin (cancer cell lines): high anticancer activity

COc1cc2c(OC3OCC(O)C(O)C3O)c3c(c(-c4ccc5c(c4)OCO5)c2cc1OC)C(=O)OC3 (stereo not drawn) [I-3, 9-(1,3-benzodioxol-5-yl)-4-[(3,4,5-trihydroxytetrahydro-2H-pyran-2-yl)oxy]naphtho-6,7-dimethoxynaphtho[2,3-c]furan-1(3H)-one]
pIC50 (T47D [5]): 6.15 | pIC50 (MDAMB231 [1]; MDAMB231, soft agar, one week, read-out: IC 50): 6.26 | pIC50 (PC3 [6]): 6.07 | pIC50 (DU145 [7]): 6.18 | pIC50 (T47D [8]): 4.68 | pIC50 (MDAMB231 [9]): 5.00 | pIC50 (PC3 [10]): 4.87 | pIC50 (DU145 [3]; DU-145, DU145, MTT, 48 hours, read-out: IC 50): 5.02 | pIC50 (LNCaP): 5.50 | numbers of primary spheres formed, compared with cisplatin ([11]; MCF-7): significantly less | # of 3D Primary Spheres Formed of Cells MCF-7 (±SD) ([11]; final conc. 0.125 μM): 74(±10) | # of 3D Primary Spheres Formed of Cells MCF-7 (±SD) ([11]; final conc. 1.25 μM): 57(±5) | # of 3D Primary Spheres Formed of Cells MCF-7 (±SD) ([11]; final conc. 12.5 μM): 48(±10) | # of 3D Primary Spheres Formed of Cells MCF-7 (±SD) ([11]; final conc. 125 μM): 28(±6) | # of 3D Primary Spheres Formed of Cells MCF-7 (±SD) ([11]; final conc. 1250 μM): 0(±0) | numbers of primary spheres formed, compared with cisplatin ([12]; MDA MB 231): significantly less | # of 3D Primary Spheres Formed of Cells MDA MB231 (±SD) ([12]; final conc. 0.125 μM): 54(±5) | # of 3D Primary Spheres Formed of Cells MDA MB231 (±SD) ([12]; final conc. 1.25 μM): 38(±5) | # of 3D Primary Spheres Formed of Cells MDA MB231 (±SD) ([12]; final conc. 12.5 μM): 31(±5) | # of 3D Primary Spheres Formed of Cells MDA MB231 (±SD) ([12]; final conc. 125 μM): 9(±2) | # of 3D Primary Spheres Formed of Cells MDA MB231 (±SD) ([12]; final conc. 1250 μM): 0(±0) | anticancer activity in cancer cell lines as compared to cisplatin (cancer cell lines): high anticancer activity
